In patent US4798897A, “Isoquinoline derivatives” (Asahi Kasei Kogyo Kabushiki Kaisha, priority 1987, dated 1989):

Legend:
mesenteric artery = assay: Relaxation of mesenteric artery (KCl-contracted); details: Oryctolagus cuniculus; rabbit mesenteric artery contracted with 15 to 20 mM KCl; read-out: ED50 (concentration attaining 50% of complete relaxation)
Experimental: 1. Relaxation of Mesenteric Artery
A rabbit of Japanese local variety weighing about 3 kg was bled to death. Then, the abdomen of the rabbit was dissected to locate a mesenteric artery. […] Thus, shrinking and relaxation of the artery could be measured as a load on the transducer. To the organ bath, KCl was added so that the KCl concentration became 15 to 20 mM, causing the artery to shrink. Then, the compounds of the present invention were added to the organ bath to observe relaxation of the artery.
The effect of the compounds of the present invention on relaxation of mesenteric artery was examined according to the method as mentioned hereinbefore.

bronchial tubes = assay: Inhibition of histamine contraction of bronchial tubes (relaxation of bronchial tubes); details: Cavia porcellus; guinea pig bronchial tube, 10 μM histamine; Table 16; read-out: ED50 (50% decrease of histamine contraction of bronchial tubes)
Experimental: 3. Inhibition of Histamine Contraction of Bronchial Tubes (Relaxation of Bronchial Tubes)
That is, a bronchial tube sample taken from a guinea pig was suspended in the 20-ml bath filled with Krebs-Henseleit nutrient solution and maintained at a temperature of 37° C. To the bath was added histamine so that the histamine concentration became 10 μM, causing the bronchial tube sample to contract. After the contraction became stable, the compounds of the present invention were added cumulatively to the bath to observe relaxation of the bronchial tube sample.
The effect of the compounds of the present invention on relaxation of bronchial tubes was examined according to the method as mentioned hereinbefore.

Row | SMILES | EC50 (mesenteric artery) [µM] | EC50 (bronchial tubes) [µM]
1 | CCCCCCN(CCN(C)C)S(=O)(=O)c1cccc2cnccc12 [Compound (43), N-(2-dimethylaminoethyl)-N-hexyl-5-isoquinolinesulfonamide] | 20 | 27
2 | CCCCCCN(CCCCCC)CCN(Cc1ccccc1)S(=O)(=O)c1cccc2cnccc12 [Compound (44), N-benzyl-N-(2-dihexylamimoethyl)-5-isoquinolinesulfonamide] | 21 | 29
3 | CCCCCCN(CCN1CCCCC1)S(=O)(=O)c1cccc2cnccc12 [Compound (45), N-hexyl-N-(2-piperidinoethyl)-5-isoquinolinesulfonamide] | 23 | 17
4 | CCCCCCN(CCN1CCOCC1)S(=O)(=O)c1cccc2cnccc12 [Compound (46), N-hexyl-N-(2-morpholinoethyl)-5-isoquinolinesulfonamide] | 23 | 25
5 | CCN(CCN(C)C1CCCCC1)S(=O)(=O)c1cccc2cnccc12 [Compound (47), N-[2-(N-cyclohexyl-N-methylamino)ethyl]-N-ethyl-5-isoquinolinesulfonamide] | 22 | 19
6 | CCCCCCN(CC(C)N1CCCCC1)S(=O)(=O)c1cccc2cnccc12 (stereo not drawn) [Compound (48), N-hexyl-N-(2-piperidinopropyl)-5-isoquinolinesulfonamide] | 24 | 20
7 | CCN(CCCCCN1CCCCC1)S(=O)(=O)c1cccc2cnccc12 [Compound (50), N-ethyl-N-(5-piperidinopentyl)-5-isoquinolinesulfonamide] | 26 | 26
8 | NC1CCN(S(=O)(=O)c2cccc3cnccc23)CC1 [Compound (51), 1-(5-isoquinolinesulfonyl)-4-aminopiperidine] | 15 | 8
9 | CNC1CCN(S(=O)(=O)c2cccc3cnccc23)CC1 [Compound (52), 1-(5-isoquinolinesulfonyl)-4-methylaminopiperidine] | 14 | 12
10 | CCNC1CCN(S(=O)(=O)c2cccc3cnccc23)CC1 [Compound (53), 1-(5-isoquinolinesulfonyl)-4-ethylaminopiperidine] | 14 | 11
11 | CCCNC1CCN(S(=O)(=O)c2cccc3cnccc23)CC1 [Compound (54), 1-(5-isoquinolinesulfonyl)-4-propylaminopiperidine] | 13 | 14
12 | CC(C)NC1CCN(S(=O)(=O)c2cccc3cnccc23)CC1 [Compound (55), 1-(5-isoquinolinesulfonyl)-4-isopropylaminopiperidine] | 17 | 12
13 | CCCCNC1CCN(S(=O)(=O)c2cccc3cnccc23)CC1 [Compound (56), 1-(5-isoquinolinesulfonyl)-4-butylaminopiperidine] | 14 | 10
14 | CCCCCCNC1CCN(S(=O)(=O)c2cccc3cnccc23)CC1 [Compound (57), 1-(5-isoquinolinesulfonyl)-4-hexylaminopiperidine] | 15 | 20
15 | O=S(=O)(c1cccc2cnccc12)N1CCC(Nc2ccccc2)CC1 [Compound (58), 1-(5-isoquinolinesulfonyl)-4-phenylaminopiperidine] | 20 | 25
16 | CCCCCCN(C)C1CCN(S(=O)(=O)c2cccc3cnccc23)CC1 [Compound (59), 1-(5-isoquinolinesulfonyl)-4-(N-hexyl-N-methylamino)piperidine] | 21 | 23
17 | O=S(=O)(c1cccc2cnccc12)N1CCC(NCc2ccccc2)CC1 [Compound (60), 1-(5-isoquinolinesulfonyl)-4-benzylaminopiperidine] | 19 | 13
18 | O=S(=O)(c1cccc2cnccc12)N1CCC(NCCc2ccccc2)CC1 [Compound (61), 1-(5-isoquinolinesulfonyl)-4-phenethylaminopiperidine] | 15 | 15
19 | O=S(=O)(c1cccc2cnccc12)N1CCC(N2CCCCC2)CC1 [Compound (62), 1-(5-isoquinolinesulfonyl)-4-piperidinopiperidine] | 22 | 23
20 | CNC1CCCN(S(=O)(=O)c2cccc3cnccc23)C1 (stereo not drawn) [Compound (64), 1-(5-isoquinolinesulfonyl)-3-methylaminopiperidine] | 6 | 6
21 | CCNC1CCCN(S(=O)(=O)c2cccc3cnccc23)C1 (stereo not drawn) [Compound (65), 1-(5-isoquinolinesulfonyl)-3-ethylaminopiperidine] | 6 | 5

Row | SMILES | EC50 (mesenteric artery) [µM] | EC50 (bronchial tubes) [µM]
22 | CCCNC1CCCN(S(=O)(=O)c2cccc3cnccc23)C1 (stereo not drawn) [Compound (66), 1-(5-isoquinolinesulfonyl)-3-propylaminopiperidine] | 5 | 8
23 | CC(C)NC1CCCN(S(=O)(=O)c2cccc3cnccc23)C1 (stereo not drawn) [Compound (67), 1-(5-isoquinolinesulfonyl)-3-isopropylaminopiperidine] | 14 | 10
24 | O=S(=O)(c1cccc2cnccc12)N1CCCC(NCc2ccccc2)C1 (stereo not drawn) [Compound (69), 1-(5-isoquinolinesulfonyl)-3-benzylaminopiperidine] | 8 | 14
25 | O=S(=O)(c1cccc2cnccc12)N1CCCC(NCCc2ccccc2)C1 (stereo not drawn) [Compound (70), 1-(5-isoquinolinesulfonyl)-3-phenethylaminopiperidine] | 7 | 13
26 | O=S(=O)(c1cccc2cnccc12)N1CCCC(N2CCCCC2)C1 (stereo not drawn) [Compound (72), 1-(5-isoquinolinesulfonyl)-3-piperidinopiperidine] | 24 | 21
27 | CN(C)C1CCCN(S(=O)(=O)c2cccc3cnccc23)C1 (stereo not drawn) [Compound (73), 1-(5-isoquinolinesulfonyl)-3-dimethylaminopiperidine] | 19 | 26
28 | CC1CCN(S(=O)(=O)c2cccc3cnccc23)CC1N (stereo not drawn) [Compound (75), 1-(5-isoquinolinesulfonyl)-3-amino-4-methylpiperidine] | 20 | 16
29 | CNC1CCN(S(=O)(=O)c2cccc3cnccc23)C1 (stereo not drawn) [Compound (76), 1-(5-isoquinolinesulfonyl)-3-methylaminopyrrolidine] | 13 | 27
30 | CC1CC(N)CN1S(=O)(=O)c1cccc2cnccc12 (stereo not drawn) [Compound (77), 1-(5-isoquinolinesulfonyl)-3-amino-5-methylpyrrolidine] | 16 | 32
31 | NC1CCN(S(=O)(=O)c2cccc3cnccc23)C1 (stereo not drawn) [Compound (78), 1-(5-isoquinolinesulfonyl)-3-aminopyrrolidine] | 12 | 30
32 | NC1CCN(S(=O)(=O)c2cccc3c(O)nccc23)CC1 [Compound (79), 1-(1-hydroxy-5-isoquinolinesulfonyl)-4-aminopiperidine] | 15 | 13
33 | CNC1CCN(S(=O)(=O)c2cccc3c(O)nccc23)CC1 [Compound (80), 1-(1-hydroxy-5-isoquinolinesulfonyl)-4-methylaminopiperidine] | 14 | 16
34 | CCCNC1CCN(S(=O)(=O)c2cccc3c(O)nccc23)CC1 [Compound (81), 1-(1-hydroxy-5-isoquinolinesulfonyl)-4-propylaminopiperidine] | 12 | 14
35 | O=S(=O)(c1cccc2c(O)nccc12)N1CCC(Nc2ccccc2)CC1 [Compound (82), 1-(1-hydroxy-5-isoquinolinesulfonyl)-4-phenylaminopiperidine] | 21 | 21
36 | O=S(=O)(c1cccc2c(O)nccc12)N1CCC(NCc2ccccc2)CC1 [Compound (83), 1-(1-hydroxy-5-isoquinolinesulfonyl)-4-benzylaminopiperidine] | 18 | 19
37 | CCCNC1CCCN(S(=O)(=O)c2cccc3c(O)nccc23)C1 (stereo not drawn) [Compound (85), 1-(1-hydroxy-5-isoquinolinesulfonyl)-3-propylaminopiperidine] | 13 | 11
38 | O=S(=O)(c1cccc2c(O)nccc12)N1CCCC(NCc2ccccc2)C1 (stereo not drawn) [Compound (86), 1-(1-hydroxy-5-isoquinolinesulfonyl)-3-benzylaminopiperidine] | 17 | 11
39 | O=S(=O)(c1cccc2c(O)nccc12)N1CCCC(Nc2ccccc2)C1 (stereo not drawn) [Compound (87), 1-(1-hydroxy-5-isoquinolinesulfonyl)-3-phenylaminopiperidine] | 20 | 15
40 | CCCCCCNC1CCCN(S(=O)(=O)c2cccc3c(O)nccc23)C1 (stereo not drawn) [Compound (88), 1-(1-hydroxy-5-isoquinolinesulfonyl)-3-hexylaminopiperidine] | 12 | 9
41 | O=S(=O)(c1cccc2c(O)nccc12)N1CCCC(NCCc2ccccc2)C1 (stereo not drawn) [Compound (89), 1-(1-hydroxy-5-isoquinolinesulfonyl)-3-phenethylaminopiperidine] | 12 | 10
42 | CN(C)C1CCCN(S(=O)(=O)c2cccc3c(O)nccc23)C1 (stereo not drawn) [Compound (90), 1-(1-hydroxy-5-isoquinolinesulfonyl)-3-dimethylaminopiperidine] | 23 | 17
